Literature values in paper PMC9814429, “First-in-human phase I dose-escalation and dose-expansion trial of the selective MEK inhibitor HL-085 in patients with advanced melanoma harboring NRAS mutations” (BMC Medicine, 2023).

Test system: NRAS mutant melanoma
Design: method as in PMID 28284557
Settings: phase 3, NRAS mutant melanoma

Cn1cnc2c(F)c(Nc3ccc(Br)cc3F)c(C(=O)NOCCO)cc21 [binimetinib]
DCR: 58%
ORR: 15%
PFS: 2.8 months
